These are literature values, as cited in article PMC2908260 (Journal of nuclear medicine : official publication, Society …, 2010).

The conditions of this data set: other ^18F-labeled octreotide analogues.

One may read the log P as a log measure of how a compound divides between an organic and an aqueous phase. Consider “N^α-(1-deoxy-D-fructosyl)-N^ε-(2-[^18F]fluoropropionyl)-Lys^0-Tyr^3octreotate [[^18F]FP-Gluc-TOCA]”, for which the “log P” value is −1.70 ± 0.02.
